This is an account of results in US7276511B2, “Benzylamine derivative” (Zeria Pharmaceutical Co., Ltd., priority 2003, dated 2007).

Structures can show the parent of a compound that is named as a salt. Where two headings read alike, the source gives them in different places.

Experiment [1] addresses T1, Cloned Neurokinin Receptor Subtype 2 Human (Homo sapiens, UniProt P21452).
T1 construct: purchased Biosignal Packard; host or cells: CHO cells
T1 sequence (P21452 1-398): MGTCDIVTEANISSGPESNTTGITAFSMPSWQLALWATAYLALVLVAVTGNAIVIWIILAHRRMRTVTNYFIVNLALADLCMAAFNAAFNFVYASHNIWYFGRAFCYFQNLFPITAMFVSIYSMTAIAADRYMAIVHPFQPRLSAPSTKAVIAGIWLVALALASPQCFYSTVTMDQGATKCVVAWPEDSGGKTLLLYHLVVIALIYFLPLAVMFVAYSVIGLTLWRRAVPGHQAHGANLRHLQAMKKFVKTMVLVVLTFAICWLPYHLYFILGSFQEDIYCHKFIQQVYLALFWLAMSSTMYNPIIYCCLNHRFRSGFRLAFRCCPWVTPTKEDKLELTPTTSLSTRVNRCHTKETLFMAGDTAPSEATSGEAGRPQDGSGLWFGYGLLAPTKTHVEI
The experiment is described as follows: NK-2 receptor-binding experiment ([3H]-SR48968, CHO cell membranes). The settings on record: Table 4; inhibition of [3H]-SR48968 (0.85 nM) binding, pseudo-Hill analysis. The procedure: 2. NK-2 Receptor-binding Experiment
Cloned Neurokinin Receptor Subtype 2 Human (CHO cells, Biosignal Packard), [^3H]-SR48968 (Amersham, final concentration 0.85 nM), and a test compound were mixed with 20 mM HEPES buffer, and the mixture was incubated for 50 minutes at 27° C. After completion of incubation, membrane components were collected by means of an automatic filtration apparatus (Brandel) onto a GF/C glass fiber filter (Whatman).
Before use, in order to prevent non-specific binding, the glass fiber filter had been pre-treated with 0.1% polyethylene imine solution for about 4 hours.
The filter employed to collect the membrane components was transferred to a plastic vial containing UltimaGold MV (5 mL), and measured by means of a liquid scintillation counter (Packard, 2000CA) in terms of the radioactivity.
(§1) Percent radioactive ligand-receptor binding inhibition of each test compound was calculated by use of the following equation, and IC50 (nM) was determined through pseudo-Hill analysis.
(§2) Percent inhibition (%)=[1−(C−A)/(B−A)]×100
(§3) A: Radioactivity attributed to non-specific binding
(§4) B: Radioactivity without test compound
(§5) C: Radioactivity with test compound

Experiment [2] has as its target NK-1 receptor (Homo sapiens, UniProt P25103). Briefly: NK-1 receptor-binding test ([3H]-Substance P, hNK1-CHO cells). More on the design: expressed in transfected cells; host or cells: CHO-K1 cells (ATCC: CCL-61), G418-resistant, hNK1-CHO. The method, then: 1. NK-1 Receptor-binding Test
1) Preparation of Human NK-1 Receptor Expression Cells
FuGene 6 transfection reagent (Boegringer Mannheim) (3 μL) was diluted in an F-12 culture broth (97 μL), and pCR3.1 plasmid to which human NK-1 receptor cDNA had been introduced (Invitrogen) (10 μL) was added thereto. The mixture was mixed and incubated for 15 minutes (transfection reagent). CHO-K1 cells (ATCC: CCL-61) were cultured for 24 hours, and the whole reagent prepared above was added to the cultured CHO-K1 cells ([…]). Subsequently, culture was performed in the presence of G418 (Stratagene), and the resistant cells were employed as cells into which human NK-1 receptor gene was introduced (hNK1-CHO).
2) Subcultivation of hNK1-CHO Cells
The hNK1-CHO cells were treated with trypsin-EDTA and subcultivated in an F-12 culture broth (containing 10% fetal bovine serum, 10 mM HEPES, 100 U/mL, penicillin, 100 μg/mL streptmycin, 400 μg/mL G418) in a 75-cm^2 flask (FALCON). Cells to be employed in the receptor-binding experiment were added to a 24-well plate (IWAKI) at 1×10^5 cells/well, and subcultured for 48 hours at 37° C. under 95% […] and 5% CO2.
3) Receptor-binding Experiment
When the hNK1-CHO cells became subconfluent on the 24-well plate, an F-12 culture broth (containing 10 mM HEPES and 0.1% fetal bovine serum) (450 μL), [^3H]-Substance P (Amersham, final concentration 0.5 nM), and a test compound were added to the cells, and the mixture was incubated for 40 minutes at 37° C. For the measurement of non-specific binding, L703606 (Sigma) was added instead of the test compound. After completion of incubation, the mixture was washed with ice-cooled phosphate buffered saline containing 0.1% fetal bovine serum, and the cells were lysed with 1N NaOH (0.5 mL). The lysate was transfered to a plastic vial containing UltimaGold MV (5 mL), and the radioactivity was determined by means of a liquid liquid scintillation counter (Packard, 2000CA).
as §1, §2, §3, §4, §5

Experiment [3] addresses T2, NK-2 receptor (Homo sapiens, UniProt P21452).
T2 sequence (P21452 1-398): T1 sequence (P21452 1-398)
The settings on record: in vitro for (B); known from Patent Documents 2 and 4; cited from earlier work.

Where [4] appears, read: Table 4, inhibition of [3H]-Substance P (0.5 nM) binding to hNK1-CHO cells, pseudo-Hill analysis, read-out: NK-1.

Sequence of NK-1 receptor (P25103 whole entry): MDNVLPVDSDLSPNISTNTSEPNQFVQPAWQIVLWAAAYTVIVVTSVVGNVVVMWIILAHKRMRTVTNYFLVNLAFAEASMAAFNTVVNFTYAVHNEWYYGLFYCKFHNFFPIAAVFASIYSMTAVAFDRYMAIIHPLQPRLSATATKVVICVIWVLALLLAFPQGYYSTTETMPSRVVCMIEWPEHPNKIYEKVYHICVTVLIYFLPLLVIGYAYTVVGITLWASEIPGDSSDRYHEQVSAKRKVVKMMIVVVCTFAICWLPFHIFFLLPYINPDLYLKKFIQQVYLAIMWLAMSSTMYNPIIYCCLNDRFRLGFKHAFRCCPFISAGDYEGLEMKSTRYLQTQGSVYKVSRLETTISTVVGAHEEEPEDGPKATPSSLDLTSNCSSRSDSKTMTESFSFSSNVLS

On to `CN(C[C@](CCN1CCC2(CC1)c1ccccc1C[S@+]2[O-])(c1ccc(Cl)c(Cl)c1)N(C)C(=O)C(c1ccccc1)c1ccccc1)C(=O)CC(F)(F)F` [Compound No. 42, N-{2-(S)-(N-methyl-2,2-diphenylacetamide)-2-(3,4-dichlorophenyl)-4-[spiro(benzo(c)thiophene-(2S)-oxido-1(3H),4′-piperidin)-1′-yl]butyl}-3,3,3-trifluoro-N-methylpropanamido hydrochloride], for which the figures for the IC50 in experiment [1] and in experiment [2] (setting [4]) were 4 nM and 2.1 nM, respectively.

Consider `CC(C)C(=O)N(C)C[C@](CCN1CCC2(CC1)NC(=O)Cc1ccccc12)(c1ccc(Cl)c(Cl)c1)N(C)C(=O)NC(c1ccccc1)c1ccccc1` [Compound No. 44, 1-{1-(N-methyl-isobutylamide)-2-(S)-(3,4-dichlorophenyl)-4-[3-oxo-3,4-dihydro-2H-spiro(isoquinoline-1,4′-piperidin)-1′-yl]butan-2-yl}-3-benzhydryl-1-methylureahydrochloride], for which the IC50 in experiment [1] is 2.4 nM; in experiment [2] (setting [4]), 11 nM.

For the molecule `CN(C[C@](CCN1CCC2(CC1)NC(=O)Cc1ccccc12)(c1ccc(Cl)c(Cl)c1)N(C)C(=O)C(c1ccccc1)c1ccccc1)C(=O)CC(F)(F)F` [Compound No. 43, N-{2-(S)-(N-methyl-2,2-diphenylacetamide)-2-(3,4-dichlorophenyl)-4-[3-oxo-3,4-dihydro-2H-spiro(isoquinoline-1,4′-piperidin)-1′-yl]butyl}-3,3,3-trifluoro-N-methylpropanamido hydrochloride], the IC50 in experiment [1] turned out to be 2.1 nM; in experiment [2] (setting [4]) it was 7.7 nM.

Turning to `CN(C[C@@H](CCN1CCC2(CCc3ccccc32)CC1)c1ccc(Cl)c(Cl)c1)C(=O)c1ccccc1` [compound (B), reference compound], the “antagonistic activity against NK-2 receptor” value in experiment [3] is on record as “exhibits antagonistic activity only to NK-2 receptor”.

Regarding `COc1ccccc1OC(=O)N(C)[C@](CCCN1CCC2(CC1)c1ccccc1C[S@+]2[O-])(CN(C)C(=O)CC(F)(F)F)c1ccc(Cl)c(Cl)c1` [Compound No. 636, 2-methoxyphenyl{1-(3,3,3-trifluoro-N-methylpropanamido)-2-(S)-(3,4-dichlorophenyl)-5-[spiro(benzo(c)thiophene-(2S)-oxido-1(3H),4′-piperidin)-1′-yl]pentan-2-yl}methylcarbamate hydrochloride], the IC50 in experiment [2] was found to be 0.9 nM.

For `CN(CC(CCN1CCC2(CC1)c1ccccc1C[S@+]2[O-])(c1ccc(Cl)c(Cl)c1)N(C)C(=O)NC(c1ccccc1)c1ccccc1)C(=O)C(F)(F)Cl` (stereo partly drawn) [Compound No. 4, N-{2-(3-benzohydryl-1-methylureido)-2-(3,4-dichlorophenyl)-4-{spiro[benzo(c)thiophene-1(3H),4′-piperidine]-(2S)-oxide}-1′-yl-butyl}-2-chloro-2,2-difluoro-N-methyl-acetamide hydrochloride], the IC50 in experiment [1] amounted to 1.5 nM; in experiment [2] (setting [4]), 3.4 nM.

`CC(C)C(=O)N(C)C[C@](CCN1CCC2(CC1)c1ccccc1C[S@+]2[O-])(c1ccc(Cl)c(Cl)c1)N(C)C(=O)CC(c1ccccc1)c1ccccc1` [Compound No. 45, N-{2-(S)-(N-methyl-3,3-diphenylpropanamido)-2-(3,4-dichlorophenyl)-4-[spiro(benzo(c)thiophene-(2S)-oxido-1(3H),4′-piperidin)-1′-yl]butyl}-N-methyl-isobutylamide hydrobromide]: the IC50 was 2.8 nM in experiment [1] and 4.9 nM in experiment [2] (setting [4]).

As for `CCC(=O)N(C)CC(CCN1CCC2(CC1)c1ccccc1C[S+]2[O-])(c1ccc(Cl)c(Cl)c1)N(C)C(=O)CC(c1ccccc1)c1ccccc1` [Compound No. 5, N-{2-(3,4-dichlorophenyl)-2-[(3,3-diphenylpropionyl)-methylamino]-4-{spiro[benzo(c)thiophene-1(3H),4′-piperidine]-(2S)-oxide}-1′-yl-butyl}-N-methyl-propionamide hydrochloride], the IC50 was determined as 1.9 nM in experiment [1] and 6.3 nM in experiment [2] (setting [4]).

As for `CN(C[C@](CCN1CCC2(CC1)NC(=O)Cc1ccccc12)(c1ccc(Cl)c(Cl)c1)N(C)C(=O)NC(c1ccccc1)c1ccccc1)C(=O)C(F)(F)F` [Compound No. 46, 1-{1-(2,2,2-trifluoro-N-methylacetamide)-2-(S)-(3,4-dichlorophenyl)-4-[3-oxo-3,4-dihydro-2H-spiro(isoquinoline-1,4′-piperidin)-1′-yl]butan-2-yl}-3-benzhydryl-1-methylurea sulfate], the IC50 is 1.8 nM in experiment [1] and 10.1 nM in experiment [2] (setting [4]).

Turning to `CC(C)C(=O)N(C)CC(CCN1CCC2(CC1)c1ccccc1C[S+]2[O-])(c1ccc(Cl)c(Cl)c1)N(C)C(=O)CC(c1ccccc1)c1ccccc1` [Compound No. 2, N-{2-(3,4-dichlorophenyl)-2-[(3,3-diphenylpropionyl)-methylamino]-4-{spiro[benzo(c)thiophene-1(3H),4′-piperidine]-(2S)-oxide}-1′-yl-butyl}-N-methyl-isobutylamide hydrochloride], the IC50 came out at 2.1 nM in experiment [1] and 4.3 nM in experiment [2] (setting [4]).

For the molecule `CN(CC(CCN1CCC2(CC1)c1ccccc1C[S+]2[O-])(c1ccc(Cl)c(Cl)c1)N(C)C(=O)CC(c1ccccc1)c1ccccc1)C(=O)CC(F)(F)F` [Compound No. 1, N-{2-(3,4-dichlorophenyl)-2-[(3,3-diphenylpropionyl)-methylamino]-4-{spiro[benzo(c)thiophene-1(3H),4′-piperidine]-(2S)-oxide}-1′-yl-butyl}-3,3,3-trifluoro-N-methyl-propionamide hydrochloride], the IC50 in experiment [1] is 1.6 nM; in experiment [2] (setting [4]) it was 1.2 nM.

Consider `CN(C[C@](CCCN1CCC2(CC1)c1ccccc1C[S@+]2[O-])(c1ccc(Cl)c(Cl)c1)N(C)C(=O)Oc1ccc(F)cc1)C(=O)CC(F)(F)F` [Compound No. 639, 4-fluorophenyl{1-(3,3,3-trifluoro-N-methylpropanamido)-2-(S)-(3,4-dichlorophenyl)-5-[spiro(benzo(c)thiophene-(2S)-oxido-1(3H),4′-piperidin)-1′-yl]pentan-2-yl}methylcarbamate hydrochloride], for which the IC50 in experiment [2] was found to be 4 nM.

`CN(C[C@](CCCN1CCC2(CC1)c1ccccc1C[S@+]2[O-])(c1ccc(Cl)c(Cl)c1)N(C)C(=O)Oc1ccc(Cl)cc1)C(=O)CC(F)(F)F` [Compound No. 633, 4-chlorophenyl(1-(3,3,3-trifluoro-N-methylpropanamido)-2-(S)-(3,4-dichlorophenyl)-5-[spiro(benzo(c)thiophene-(2S)-oxido-1(3H),4′-piperidin)-1′-yl]pentan-2-yl}methylcarbamate hydrochloride] displayed an IC50 in experiment [2] of 8.3 nM.

As for `CC(=O)NC1(c2ccccc2)CCN(CCC(CN(C)C(=O)C(F)F)(c2ccc(Cl)c(Cl)c2)N(C)C(=O)NC(c2ccccc2)c2ccccc2)CC1` (stereo not drawn) [Compound No. 12, N-[4-(4-Acetylamino-4-phenyl-piperidine-1′-yl)-2-(3-benzhydryl-1-methyl-ureido)-2-(3,4-dichlorophenyl)-butyl]-2,2-difluoro-N-methyl-acetamide hydrochloride], the results for the IC50 in experiment [1] and in experiment [2] (setting [4]) were 6.1 nM and 11 nM, respectively.
